Test results published in ChEMBL document CHEMBL2010711, “Synthesis and comparative evaluation of 4-oxa- and 4-aza-podophyllotoxins as antiproliferative microtubule destabilizing agents” (Bioorg Med Chem Lett, 2012).
Active and inactive are the calls of the source.

Key:
NCI-H460 = assay: Cytotoxicity against human NCI-H460 cells after 48 hrs by trypan blue dye exclusion assay; type: functional; settings: NCI-H460, 48 h
M14 = assay: Cytotoxicity against human M14 cells after 48 hrs by trypan blue dye exclusion assay; type: functional; settings: M14, 48 h
ACHN = assay: Cytotoxicity against human ACHN cells after 48 hrs by trypan blue dye exclusion assay; type: functional
SW-620 = assay: Cytotoxicity against human SW620 cells after 48 hrs by trypan blue dye exclusion assay; type: functional; settings: SW-620, 48 h
OVCAR-8 = assay: Cytotoxicity against human OVCAR8 cells after 48 hrs by trypan blue dye exclusion assay; type: functional; settings: OVCAR-8, 48 h
KM12 = assay: Cytotoxicity against human KM12 cells after 48 hrs by trypan blue dye exclusion assay; type: functional; settings: KM12, 48 h
NCI-H226 = assay: Cytotoxicity against human NCI-H226 cells after 48 hrs by trypan blue dye exclusion assay; type: functional; settings: NCI-H226, 48 h
U-251 = assay: Cytotoxicity against human U251 cells after 48 hrs by trypan blue dye exclusion assay; type: functional; settings: U-251, 48 h
HT-29 = assay: Cytotoxicity against human HT-29 cells after 48 hrs by trypan blue dye exclusion assay; type: functional; settings: HT-29, 48 h
SK-MEL-28 = assay: Cytotoxicity against human SK-MEL-28 cells after 48 hrs by trypan blue dye exclusion assay; type: functional; settings: SK-MEL-28, 48 h
SR = assay: Cytotoxicity against human SR cells after 48 hrs by trypan blue dye exclusion assay; type: functional
TK-10 = assay: Cytotoxicity against human TK10 cells after 48 hrs by trypan blue dye exclusion assay; type: functional; settings: TK-10, 48 h
COLO 205 = assay: Cytotoxicity against human COLO205 cells after 48 hrs by trypan blue dye exclusion assay; type: functional; settings: COLO 205, 48 h
CAKI-1 = assay: Cytotoxicity against human CAKI-1 cells after 48 hrs by trypan blue dye exclusion assay; type: functional; settings: CAKI-1, 48 h
Paracentrotus lividus [1] = assay: Microtubule destabilizing activity in Paracentrotus lividus embryo assessed as embryo spinning at 2 fold less effective threshold concentration after 15 mins to 20 hrs; type: functional, organism-based
HOP-92 = assay: Cytotoxicity against human HOP92 cells after 48 hrs by trypan blue dye exclusion assay; type: functional; settings: HOP-92, 48 h
EKVX = assay: Cytotoxicity against human EKVX cells after 48 hrs by trypan blue dye exclusion assay; type: functional
OVCAR-4 = assay: Cytotoxicity against human OVCAR4 cells after 48 hrs by trypan blue dye exclusion assay; type: functional; settings: OVCAR-4, 48 h
A549 = assay: Cytotoxicity against human A549 cells after 48 hrs by trypan blue dye exclusion assay; type: functional; settings: A549, 48 h
HCT-116 = assay: Cytotoxicity against human HCT116 cells after 48 hrs by trypan blue dye exclusion assay; type: functional; settings: HCT-116, 48 h
[2] = Cytotoxicity against human Hs 578T cells after 48 hrs by trypan blue dye exclusion assay; type: functional
HCC 2998 = assay: Cytotoxicity against human HCC2998 cells after 48 hrs by trypan blue dye exclusion assay; type: functional; settings: HCC 2998, 48 h
OVCAR-5 = assay: Cytotoxicity against human OVCAR5 cells after 48 hrs by trypan blue dye exclusion assay; type: functional; settings: OVCAR-5, 48 h
RXF 393 = assay: Cytotoxicity against human RXF393 cells after 48 hrs by trypan blue dye exclusion assay; type: functional; settings: RXF 393, 48 h
Malme-3M = assay: Cytotoxicity against human MALME-3M cells after 48 hrs by trypan blue dye exclusion assay; type: functional
UACC-257 = assay: Cytotoxicity against human UACC257 cells after 48 hrs by trypan blue dye exclusion assay; type: functional; settings: UACC-257, 48 h
CCRF-CEM = assay: Cytotoxicity against human CCRF-CEM cells after 48 hrs by trypan blue dye exclusion assay; type: functional
NCI-H522 = assay: Cytotoxicity against human NCI-H522 cells after 48 hrs by trypan blue dye exclusion assay; type: functional; settings: NCI-H522, 48 h
HL-60(TB) = assay: Cytotoxicity against human HL-60(TB) cells after 48 hrs by trypan blue dye exclusion assay; type: functional; settings: HL-60, 48 h
Paracentrotus lividus [3] = assay: Antimitotic activity against Paracentrotus lividus embryo assessed as concentration required to cause 100% cleavage arrest after 2.5 to 6 hrs; type: functional
BT-549 = assay: Cytotoxicity against human BT549 cells after 48 hrs by trypan blue dye exclusion assay; type: functional; settings: BT-549, 48 h
786-0 = assay: Cytotoxicity against human 786-0 cells after 48 hrs by trypan blue dye exclusion assay; type: functional; settings: 786-0, 48 h
OVCAR-3 = assay: Cytotoxicity against human OVCAR3 cells after 48 hrs by trypan blue dye exclusion assay; type: functional; settings: OVCAR-3, 48 h
HCT-15 = assay: Cytotoxicity against human HCT15 cells after 48 hrs by trypan blue dye exclusion assay; type: functional; settings: HCT-15, 48 h
MCF7 = assay: Cytotoxicity against human MCF7 cells after 48 hrs by trypan blue dye exclusion assay; type: functional; settings: MCF7, 48 h
HOP-62 = assay: Cytotoxicity against human HOP62 cells after 48 hrs by trypan blue dye exclusion assay; type: functional; settings: HOP-62, 48 h
NCI/ADR-RES = assay: Cytotoxicity against human NCI/ADR-RES cells after 48 hrs by trypan blue dye exclusion assay; type: functional
LOX IMVI = assay: Cytotoxicity against human LOXIMVI cells after 48 hrs by trypan blue dye exclusion assay; type: functional
SF-268 = assay: Cytotoxicity against human SF268 cells after 48 hrs by trypan blue dye exclusion assay; type: functional; settings: SF-268, 48 h
Paracentrotus lividus [4] = assay: Antimitotic activity against Paracentrotus lividus embryo assessed as cleavage arrest at 2 fold less effective threshold concentration after 2.5 to 6 hrs; type: functional, organism-based
MOLT-4 = assay: Cytotoxicity against human MOLT4 cells after 48 hrs by trypan blue dye exclusion assay; type: functional; settings: MOLT-4, 48 h
K562 = assay: Cytotoxicity against human K562 cells after 48 hrs by trypan blue dye exclusion assay; type: functional; settings: K562, 48 h
MDA-MB-231 = assay: Cytotoxicity against human MDA-MB-231 cells after 48 hrs by trypan blue dye exclusion assay; type: functional; settings: MDA-MB-231, 48 h
Paracentrotus lividus [5] = assay: Antimitotic activity against Paracentrotus lividus embryo assessed as cleavage alteration at 2 fold less effective threshold concentration after 2.5 to 6 hrs; type: functional, organism-based
A498 = assay: Cytotoxicity against human A498 cells after 48 hrs by trypan blue dye exclusion assay; type: functional; settings: A498, 48 h
UO-31 = assay: Cytotoxicity against human UO31 cells after 48 hrs by trypan blue dye exclusion assay; type: functional; settings: UO-31, 48 h
SK-MEL-5 = assay: Cytotoxicity against human SK-MEL-5 cells after 48 hrs by trypan blue dye exclusion assay; type: functional; settings: SK-MEL-5, 48 h
RPMI-8226 = assay: Cytotoxicity against human RPMI8226 cells after 48 hrs by trypan blue dye exclusion assay; type: functional; settings: RPMI-8226, 48 h
Paracentrotus lividus [6] = assay: Antimitotic activity against Paracentrotus lividus embryo assessed as concentration required to cause 100% cleavage alteration after 2.5 to 6 hrs; type: functional
Paracentrotus lividus [7] = assay: Microtubule destabilizing activity in Paracentrotus lividus embryo assessed as concentration required to cause 100% embryo spinning after 15 mins to 20 hrs; type: functional

Q: Which GI50 (NCI-H460) does the source give for `COc1ccc2c(c1)OC1=C(C(=O)OC1)C2c1cc(OC)c2c(c1)OCO2` (configuration not stated) here?
A: Its GI50 is 36.6 nM.

Q: What about the GI50 (M14) of the same molecule?
A: The GI50 was 23.3 nM.

Q: And the GI50 (ACHN)?
A: Its GI50 is 267 nM.

Q: What about the GI50 (SW-620) of the same molecule?
A: The GI50 was 39.2 nM.

Q: And the GI50 (OVCAR-8)?
A: Its GI50 is 55.6 nM.

Q: What about the GI50 (KM12) of the same molecule?
A: The GI50 was 29.6 nM.

Q: What about the GI50 (NCI-H226) of the same molecule?
A: Its GI50 is 33.4 nM.

Q: What about the GI50 (U-251) of the same molecule?
A: The GI50 was 42.7 nM.

Q: And the GI50 (HT-29)?
A: The GI50 was 33.1 nM.

Q: What about the GI50 (SK-MEL-28) of the same molecule?
A: The GI50 was 34.2 nM.

Q: And the GI50 (SR)?
A: Its GI50 is 37.8 nM.

Q: And the GI50 (TK-10)?
A: The GI50 was 268 nM.

Q: What about the GI50 (COLO 205) of the same molecule?
A: Its GI50 is 27.8 nM.

Q: And the TGI (COLO 205)?
A: The TGI was 69.2 nM.

Q: What about the GI50 (CAKI-1) of the same molecule?
A: Its GI50 is 58 nM.

Q: What about the Activity (Paracentrotus lividus [1]) of the same molecule?
A: The Activity was “inactive”.

Q: And the GI50 (HOP-92)?
A: Its GI50 is 73000 nM.

Q: And the GI50 (EKVX)?
A: Its GI50 is 77.8 nM.

Q: And the GI50 (OVCAR-4)?
A: Its GI50 is 59.8 nM.

Q: And the GI50 (A549)?
A: Its GI50 is 44.4 nM.

Q: And the GI50 (HCT-116)?
A: Its GI50 is 37.4 nM.

Q: What about the GI50 [2] of the same molecule?
A: Its GI50 is 30.8 nM.

Q: What about the GI50 (HCC 2998) of the same molecule?
A: The GI50 was 42.1 nM.

Q: What about the GI50 (OVCAR-5) of the same molecule?
A: The GI50 was 153 nM.

Q: What about the GI50 (RXF 393) of the same molecule?
A: The GI50 was 17.8 nM.

Q: What about the GI50 (Malme-3M) of the same molecule?
A: Its GI50 is greater than 100000 nM.

Q: And the GI50 (UACC-257)?
A: The GI50 was 21300 nM.

Q: What about the GI50 (CCRF-CEM) of the same molecule?
A: Its GI50 is 37 nM.

Q: What about the GI50 (NCI-H522) of the same molecule?
A: The GI50 was less than 10 nM.

Q: What about the GI50 (HL-60(TB)) of the same molecule?
A: The GI50 was 30.3 nM.

Q: What about the EC (Paracentrotus lividus [3]) of the same molecule?
A: Its EC is 10 nM.

Q: And the GI50 (BT-549)?
A: The GI50 was 107 nM.

Q: And the GI50 (786-0)?
A: The GI50 was 51.4 nM.

Q: And the GI50 (OVCAR-3)?
A: The GI50 was 20.9 nM.

Q: What about the TGI (OVCAR-3) of the same molecule?
A: The TGI was 44.6 nM.

Q: What about the GI50 (HCT-15) of the same molecule?
A: The GI50 was 47.5 nM.

Q: And the GI50 (MCF7)?
A: The GI50 was 29.1 nM.

Q: And the GI50 (HOP-62)?
A: The GI50 was 34.9 nM.

Q: What about the GI50 (NCI/ADR-RES) of the same molecule?
A: The GI50 was 18.6 nM.

Q: And the GI50 (LOX IMVI)?
A: The GI50 was 69.1 nM.

Q: And the GI50 (SF-268)?
A: Its GI50 is 78 nM.

Q: And the Activity (Paracentrotus lividus [4])?
A: The Activity was “inactive”.

Q: And the GI50 (MOLT-4)?
A: The GI50 was 65 nM.

Q: What about the GI50 (K562) of the same molecule?
A: Its GI50 is 33 nM.

Q: And the GI50 (MDA-MB-231)?
A: Its GI50 is 61.4 nM.

Q: And the Activity (Paracentrotus lividus [5])?
A: The Activity was “inactive”.

Q: And the GI50 (A498)?
A: Its GI50 is 27.2 nM.

Q: And the GI50 (UO-31)?
A: The GI50 was 57.6 nM.

Q: And the GI50 (SK-MEL-5)?
A: Its GI50 is 36.9 nM.

Q: What about the GI50 (RPMI-8226) of the same molecule?
A: The GI50 was 48.5 nM.

Q: What about the EC (Paracentrotus lividus [6]) of the same molecule?
A: Its EC is 2 nM.

Q: And the EC (Paracentrotus lividus [7])?
A: The EC was 100 nM.
